Experimental findings from paper PMC5332414, “Mycobacterium abscessus subsp. abscessus Is Capable of Degrading Pseudomonas aeruginosa Quinolone Signals” (Frontiers in Microbiology, 2017) are described below.

In general, Km refers to the concentration of substrate that gives half-maximal velocity. As a reminder, the kcat is the maximal rate divided by the concentration of active sites.

One series concerns the target T1, AqdB (His8-MBP-AqdB) (Mycobacteroides abscessus, UniProt B1MFK1).
T1 construct: His8-MBP fusion, pET28b(+), expressed in E. coli Rosetta(DE3) whole cells
As to the kind of experiment: biotransformation by recombinant E. coli cells, HPLC. The class given is cell-based. The settings on record: 20 μM HHQ, LB medium; E. coli Rosetta without aqdB did not convert HHQ.

Series [1] relates to CCCCCCCc1[nH]c2ccccc2c(=O)c1O. As to the kind of experiment: purified protein. Type of series: biochemical, Mycobacteroides abscessus. The settings on record: apparent, co-substrate O2, 50 mM Tris, 2 mM EDTA, 10% PEG 1500, 4% (v/v) DMSO, pH 8.0, 30°C.

T1 sequence (B1MFK1 whole entry, the tested form may be a part): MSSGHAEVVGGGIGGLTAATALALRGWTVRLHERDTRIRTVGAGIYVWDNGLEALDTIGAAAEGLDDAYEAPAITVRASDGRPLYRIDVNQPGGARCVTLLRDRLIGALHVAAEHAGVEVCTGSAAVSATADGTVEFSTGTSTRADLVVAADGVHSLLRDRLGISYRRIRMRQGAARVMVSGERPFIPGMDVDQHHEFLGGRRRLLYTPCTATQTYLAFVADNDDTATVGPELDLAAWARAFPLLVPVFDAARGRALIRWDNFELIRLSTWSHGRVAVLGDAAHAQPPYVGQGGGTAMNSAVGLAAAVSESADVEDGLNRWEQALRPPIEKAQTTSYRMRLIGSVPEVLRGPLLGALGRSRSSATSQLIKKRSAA

Take `CCCCCCCc1[nH]c2ccccc2c(=O)c1O` [PQS, 2-heptyl-3-hydroxy-4(1H)-quinolone]: on AqdB (His8-MBP-AqdB), the “biotransformation by recombinant E. coli cells, HPLC” value is given as “E. coli cells producing the His8-MBP-AqdB protein converted HHQ to PQS”. As for “AqdC (AqdC^I) (Mycobacteroides abscessus ATCC 19977)”, in series [1], the Km was 37.2 ± 9.8 µM and the kcat was determined as 97.8 ± 19.1 s⁻¹. In the case of `CCCCCCCc1cc(=O)c2ccccc2[nH]1` [HHQ, 2-heptyl-4(1H)-quinolone], at AqdB (His8-MBP-AqdB), the “biotransformation by recombinant E. coli cells, HPLC” value is “E. coli cells producing the His8-MBP-AqdB protein converted HHQ to PQS”.
